{
  "source": "ChEMBL document CHEMBL5365535",
  "about": "“Selenoneine-inspired selenohydantoins with glutathione peroxidase-like activity” (Bioorg Med Chem, 2023)",
  "key": {"[1]": {"experiment": "Antioxidant activity assessed as DPPH radical scavenging activity incubated for 60 min by DPPH assay", "assay_type": "functional"}, "[2]": {"experiment": "Antioxidant activity assessed as FRAP radical scavenging activity by measuring reduction of Fe3+ complex to Fe2+ analogue incubated for 5 mins by FRAP assay", "assay_type": "functional", "design": "reference not given here"}, "[3]": {"experiment": "Antioxidant activity assessed as time to reach reaction completion", "assay_type": "functional"}, "[4]": {"experiment": "Antioxidant activity assessed as anti-radical efficiency", "assay_type": "functional"}, "[5]": {"experiment": "Antioxidant activity assessed as rate constant", "assay_type": "functional"}, "[6]": {"experiment": "Glutathione peroxidase-like activity assessed as decrease in NADPH level at 20 uM in the presence of H2O2 and glutathione reductase by UV-VIS spectrophotometer analysis (reference value: 37 microM/min)", "assay_type": "physicochemical"}, "[7]": {"experiment": "Glutathione peroxidase-like activity assessed as decrease in NADPH level at 20 uM in the presence of cumene hydroperoxide and glutathione reductase by UV-VIS spectrophotometer analysis (reference value: 7 microM/min)", "assay_type": "physicochemical"}, "[8]": {"experiment": "Glutathione peroxidase-like activity assessed as time to reach completion of the linear part at 20 uM in presence of H2O2 by UV-VIS spectrophotometer analysis", "assay_type": "physicochemical"}, "[9]": {"experiment": "Glutathione peroxidase-like activity assessed as time to reach completion of the linear part at 20 uM in presence of cumene hydroperoxide by UV-VIS spectrophotometer analysis", "assay_type": "physicochemical"}, "[10]": {"experiment": "Cytotoxicity against HuAoSMC cells assessed as metabolic activity at below 100 uM incubated for 24 hrs by MTT assay", "assay_type": "toxicity, cell-based", "settings": "human, read-out: Activity"}, "[11]": {"experiment": "Cytotoxicity against HuAoSMC cells assessed as metabolic activity at 1 uM incubated for 24 hrs by MTT assay", "assay_type": "toxicity, cell-based", "settings": "human"}},
  "note": "Active and inactive are the calls of the source. The calls are words filed in the database; no cut-off is given here.",
  "data": [
    {"compound": "O=C1NC(=[Se])NC1Cc1ccc(C(F)(F)F)cc1", "note": "(configuration not stated)", "values": [
      {"measurement": "EC50", "setting": "[1]; read-out: EC50", "result": 35, "unit": "µM"},
      {"measurement": "Activity", "setting": "[2]", "result": 363, "unit": "µM"},
      {"measurement": "TIME", "setting": "[3]", "result": 0.233, "unit": "h"},
      {"measurement": "Activity", "setting": "[4]", "result": "2.1 10^-3/min/µM"},
      {"measurement": "K", "setting": "[5]", "result": 1.6, "unit": "s⁻¹"},
      {"measurement": "Activity", "setting": "[6]", "result": 63, "unit": "µM/min"},
      {"measurement": "Activity", "setting": "[7]", "result": 32, "unit": "µM/min"},
      {"measurement": "Time", "setting": "[8]", "result": 100, "unit": "s"},
      {"measurement": "Time", "setting": "[9]", "result": 180, "unit": "s"},
      {"measurement": "viability at 24 h, 100 µM", "setting": "[10]", "result": "> 70", "unit": "%"}
    ]},
    {"compound": "O=C1NC(=[Se])NC1Cc1ccc(F)cc1", "note": "(configuration not stated)", "values": [
      {"measurement": "EC50", "setting": "[1]; read-out: EC50", "result": 39, "unit": "µM"},
      {"measurement": "Activity", "setting": "[2]", "result": 439, "unit": "µM"},
      {"measurement": "TIME", "setting": "[3]", "result": 0.4, "unit": "h"},
      {"measurement": "Activity", "setting": "[4]", "result": "1.05 10^-3/min/µM"},
      {"measurement": "K", "setting": "[5]", "result": 0.89, "unit": "s⁻¹"},
      {"measurement": "Activity", "setting": "[6]", "result": 57, "unit": "µM/min"},
      {"measurement": "Activity", "setting": "[7]", "result": 13, "unit": "µM/min"},
      {"measurement": "Time", "setting": "[8]", "result": 107, "unit": "s"},
      {"measurement": "Time", "setting": "[9]", "result": 460, "unit": "s"},
      {"measurement": "viability at 24 h, 100 µM", "setting": "[10]", "result": "> 70", "unit": "%"}
    ]},
    {"compound": "O=C1O[C@H]([C@@H](O)CO)C(O)=C1O", "note": "[ASCORBIC ACID]", "values": [
      {"measurement": "EC50", "setting": "[1]; read-out: EC50", "result": 17.8, "unit": "µM"},
      {"measurement": "Activity", "setting": "[2]", "result": 1630, "unit": "µM"}
    ]},
    {"compound": "O=C1NC(=[Se])NC1Cc1ccc(Cl)cc1", "note": "(configuration not stated)", "values": [
      {"measurement": "EC50", "setting": "[1]; read-out: EC50", "result": 44, "unit": "µM"},
      {"measurement": "Activity", "setting": "[2]", "result": 421, "unit": "µM"},
      {"measurement": "TIME", "setting": "[3]", "result": 0.183, "unit": "h"},
      {"measurement": "Activity", "setting": "[4]", "result": "2.1 10^-3/min/µM"},
      {"measurement": "K", "setting": "[5]", "result": 2.28, "unit": "s⁻¹"},
      {"measurement": "Activity", "setting": "[6]", "result": 54, "unit": "µM/min"},
      {"measurement": "Activity", "setting": "[7]", "result": 27, "unit": "µM/min"},
      {"measurement": "Time", "setting": "[8]", "result": 113, "unit": "s"},
      {"measurement": "Time", "setting": "[9]", "result": 253, "unit": "s"},
      {"measurement": "viability at 24 h, 100 µM", "setting": "[10]", "result": "> 70", "unit": "%"}
    ]},
    {"compound": "COc1ccc(CC2NC(=[Se])NC2=O)cc1", "note": "(configuration not stated)", "values": [
      {"measurement": "EC50", "setting": "[1]; read-out: EC50", "result": 38, "unit": "µM"},
      {"measurement": "Activity", "setting": "[2]", "result": 314, "unit": "µM"},
      {"measurement": "TIME", "setting": "[3]", "result": 0.3, "unit": "h"},
      {"measurement": "Activity", "setting": "[4]", "result": "1.4 10^-3/min/µM"},
      {"measurement": "K", "setting": "[5]", "result": 1.2, "unit": "s⁻¹"},
      {"measurement": "Activity", "setting": "[6]", "result": 49, "unit": "µM/min"},
      {"measurement": "Activity", "setting": "[7]", "result": 13, "unit": "µM/min"},
      {"measurement": "Time", "setting": "[8]", "result": 140, "unit": "s"},
      {"measurement": "Time", "setting": "[9]", "result": 467, "unit": "s"},
      {"measurement": "viability at 24 h, 100 µM", "setting": "[10]", "result": "> 70", "unit": "%"}
    ]},
    {"compound": "O=C1NC(=[Se])NC1Cc1ccc(Br)cc1", "note": "(configuration not stated)", "values": [
      {"measurement": "EC50", "setting": "[1]; read-out: EC50", "result": 60, "unit": "µM"},
      {"measurement": "Activity", "setting": "[2]", "result": 180, "unit": "µM"},
      {"measurement": "Activity", "setting": "[6]", "result": 51, "unit": "µM/min"},
      {"measurement": "Activity", "setting": "[7]", "result": 17, "unit": "µM/min"},
      {"measurement": "Time", "setting": "[8]", "result": 127, "unit": "s"},
      {"measurement": "Time", "setting": "[9]", "result": 393, "unit": "s"},
      {"measurement": "viability at 24 h, 100 µM", "setting": "[10]", "result": "> 70", "unit": "%"}
    ]},
    {"compound": "Cc1ccc(CC2NC(=[Se])NC2=O)cc1", "note": "(configuration not stated)", "values": [
      {"measurement": "EC50", "setting": "[1]; read-out: EC50", "result": 89, "unit": "µM"},
      {"measurement": "Activity", "setting": "[2]", "result": 116, "unit": "µM"},
      {"measurement": "Activity", "setting": "[6]", "result": 55, "unit": "µM/min"},
      {"measurement": "Activity", "setting": "[7]", "result": 18, "unit": "µM/min"},
      {"measurement": "Time", "setting": "[8]", "result": 107, "unit": "s"},
      {"measurement": "Time", "setting": "[9]", "result": 367, "unit": "s"},
      {"measurement": "viability at 24 h, 100 µM", "setting": "[10]", "result": "> 70", "unit": "%"}
    ]},
    {"compound": "O=c1c2ccccc2[se]n1-c1ccccc1", "note": "[EBSELEN]", "values": [
      {"measurement": "EC50", "setting": "[1]", "result": "Not Active"},
      {"measurement": "Activity", "setting": "[2]", "result": "inactive"},
      {"measurement": "Activity", "setting": "[6]", "result": 75, "unit": "µM/min"},
      {"measurement": "Activity", "setting": "[7]", "result": 33, "unit": "µM/min"},
      {"measurement": "Time", "setting": "[8]", "result": 80, "unit": "s"},
      {"measurement": "Time", "setting": "[9]", "result": 187, "unit": "s"}
    ]},
    {"compound": "O=C1NC(=[Se])NC1Cc1ccccc1", "note": "(configuration not stated)", "values": [
      {"measurement": "EC50", "setting": "[1]; read-out: EC50", "result": 37, "unit": "µM"},
      {"measurement": "Activity", "setting": "[2]", "result": 219, "unit": "µM"},
      {"measurement": "TIME", "setting": "[3]", "result": 0.7, "unit": "h"},
      {"measurement": "Activity", "setting": "[4]", "result": "0.63 10^-3/min/µM"},
      {"measurement": "K", "setting": "[5]", "result": 0.46, "unit": "s⁻¹"},
      {"measurement": "Activity", "setting": "[6]", "result": 55, "unit": "µM/min"},
      {"measurement": "Activity", "setting": "[7]", "result": 18, "unit": "µM/min"},
      {"measurement": "Time", "setting": "[8]", "result": 113, "unit": "s"},
      {"measurement": "Time", "setting": "[9]", "result": 413, "unit": "s"},
      {"measurement": "viability at 24 h, 100 µM", "setting": "[10]", "result": "> 70", "unit": "%"}
    ]},
    {"compound": "N[C@@H](CCC(=O)N[C@@H](CS)C(=O)NCC(=O)O)C(=O)O", "note": "[GLUTATHIONE]", "values": [
      {"measurement": "EC50", "setting": "[1]; read-out: EC50", "result": 50, "unit": "µM"},
      {"measurement": "Activity", "setting": "[2]", "result": 94, "unit": "µM"},
      {"measurement": "TIME", "setting": "[3]", "result": 0.483, "unit": "h"},
      {"measurement": "Activity", "setting": "[4]", "result": "0.69 10^-3/min/µM"},
      {"measurement": "K", "setting": "[5]", "result": 0.53, "unit": "s⁻¹"}
    ]},
    {"compound": "O=C1NC(=[Se])NC1Cc1cccc2ccccc12", "note": "(configuration not stated)", "values": [
      {"measurement": "EC50", "setting": "[1]; read-out: EC50", "result": 44, "unit": "µM"},
      {"measurement": "Activity", "setting": "[2]", "result": 271, "unit": "µM"},
      {"measurement": "TIME", "setting": "[3]", "result": 0.367, "unit": "h"},
      {"measurement": "Activity", "setting": "[4]", "result": "1 10^-3/min/µM"},
      {"measurement": "K", "setting": "[5]", "result": 0.84, "unit": "s⁻¹"},
      {"measurement": "Activity", "setting": "[6]", "result": 39, "unit": "µM/min"},
      {"measurement": "Activity", "setting": "[7]", "result": 18, "unit": "µM/min"},
      {"measurement": "Time", "setting": "[8]", "result": 187, "unit": "s"},
      {"measurement": "Time", "setting": "[9]", "result": 360, "unit": "s"},
      {"measurement": "viability at 24 h, 100 µM", "setting": "[10]", "result": "> 70", "unit": "%"}
    ]},
    {"compound": "NCC[Se][Se]CCN", "values": [
      {"measurement": "Activity", "setting": "[6]", "result": 53, "unit": "µM/min"},
      {"measurement": "Activity", "setting": "[7]", "result": 66, "unit": "µM/min"},
      {"measurement": "Time", "setting": "[8]", "result": 153, "unit": "s"},
      {"measurement": "Time", "setting": "[9]", "result": 93, "unit": "s"},
      {"measurement": "Activity", "setting": "[11]", "result": "Toxic"}
    ]}
  ]
}
